Data as given in patent US20220331269A1, “COMPOSITIONS FOR TREATING ACNE” (Botanix Pharmaceuticals Ltd., priority 2017, published 2022).

Tested on: inflammatory lesions in patient with acne
Experiment: 2-(2-ethoxyethoxy)ethanol tested against an active ingredient (for example dapsone gel) in patients with acne
Format: in vivo, human
Excerpt: Without being bound to any theory, we believe that the mechanism for this action is the 2-(2-ethoxyethoxy)ethanol may fluidize the lipids on the skin, thereby retarding the formation of microcomedones. If 2-(2-ethoxyethoxy)ethanol keep lipids from “gluing together” the desquamated keratinocytes, the number of clogged follicles, and subsequently the number of inflammatory lesions, would potentially be reduced. 2-(2-ethoxyethoxy)ethanol in the compositions of the present invention provides a means for stopping the formation of acne at its source; lipids and desquamated keratinocytes clogging pores leading to inflammation and formation of comedones. The compositions of the present invention may be active in clearing acne if used as a routine cleanser.

Compound: CCOCCOCCO [2-(2-ethoxyethoxy)ethanol]
- number of inflammatory lesions: appears to have activity to reduce the number of inflammatory lesions
